Measured values from ChEMBL document CHEMBL1144041, “Docking-based 3D-QSAR study for 11beta-HSD1 inhibitors” (Bioorg Med Chem Lett, 2008).

molecular target: 11-beta-hydroxysteroid dehydrogenase 1 (Homo sapiens, UniProt P28845); experiment: Inhibition of 11beta-HSD1
Sequence (P28845 whole entry): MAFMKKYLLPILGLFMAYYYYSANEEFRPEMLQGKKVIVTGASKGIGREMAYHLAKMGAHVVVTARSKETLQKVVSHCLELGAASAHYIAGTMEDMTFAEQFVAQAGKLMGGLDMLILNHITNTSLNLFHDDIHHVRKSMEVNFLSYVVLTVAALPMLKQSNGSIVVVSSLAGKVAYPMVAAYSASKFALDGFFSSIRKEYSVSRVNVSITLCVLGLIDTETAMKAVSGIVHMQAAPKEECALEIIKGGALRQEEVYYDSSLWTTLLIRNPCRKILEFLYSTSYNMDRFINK

| Compound | IC50 [nM] |
| --- | --- |
| CC(C)(C(=O)N[C@H]1C2CC3CC1C[C@](C(N)=O)(C3)C2)c1ccc(N2CCOCC2)nc1 | 46.8 |
| CC(C)(Oc1ccc(N2CCOCC2)cn1)C(=O)N[C@H]1C2CC3CC1C[C@](C(N)=O)(C3)C2 | 43.7 |
| O=C(Nc1cccc(C(=O)N2CCC[C@H]3CCCC[C@@H]32)c1)c1ccccc1 | 14.1 |
| CC(C)(Oc1ccc(Cl)cc1)C(=O)N[C@H]1C2CC3CC1C[C@](Cc1nnn[nH]1)(C3)C2 | 40.7 |
| CNc1ccc(C(C)(C)C(=O)N[C@H]2C3CC4CC2C[C@](C(N)=O)(C4)C3)cn1 | 28.8 |
| CCCc1nnc(C23CC4CC(CC(C4)C2)C3)n1CC | 52.5 |
| O=C(c1ccc(C(=O)N2CCC[C@H]3CCCC[C@@H]32)cc1)N1CCCc2ccccc21 | 182 |
| CC(C)(C(=O)N[C@H]1C2CC3CC1C[C@](C(N)=O)(C3)C2)c1ccc(C#N)cn1 | 14.1 |
| O=C(Nc1ccc(C(=O)N2CCC[C@H]3CCCC[C@@H]32)cc1)c1ccccc1Cl | 1580 |
| CC(C)(Oc1ccc(C#N)cn1)C(=O)N[C@H]1C2CC3CC1C[C@](C(N)=O)(C3)C2 | 28.2 |
| Cn1c(-c2ccc(C=O)cc2Cl)nnc1C12CCC(c3nc(-c4ccc(F)cc4)no3)(CC1)CC2 | 21.9 |
| CCC1CCCCN1C(=O)c1ccc(NC(=O)c2ccc(Cl)cc2Cl)cc1 (stereo not drawn) | 1070 |
| CC(C)(Oc1ccc(-n2cccn2)cn1)C(=O)N[C@H]1C2CC3CC1C[C@](C(N)=O)(C3)C2 | 5.01 |
| O=C(Nc1ccc(C(=O)N2CCC[C@H]3CCCC[C@@H]32)cc1)c1ccc(Cl)cc1 | 1100 |
| CC(C)(Oc1ccc(Cl)cc1)C(=O)N[C@H]1C2CCCC1C[C@H](C(N)=O)C2 | 21.9 |
| CCCn1c(CC)nnc1C12CC3CC(CC(C3)C1)C2 | 11 |
| CN1CCN(c2ccc(OC(C)(C)C(=O)N[C@H]3C4CC5CC3C[C@](C(N)=O)(C5)C4)nc2)CC1 | 186 |
| CC(C)(Oc1ccc(C#N)cn1)C(=O)N[C@H]1C2COCC1C[C@H](C(N)=O)C2 | 11 |
| O=C(Cc1ccccc1)Nc1ccc(C(=O)N2CCC[C@H]3CCCC[C@@H]32)cc1 | 380 |
| CC1CCCCN1C(=O)c1ccc(NC(=O)c2ccc(Cl)cc2Cl)cc1 (stereo not drawn) | 7940 |
| CCCCn1c(C)nnc1C12CC3CC(CC(C3)C1)C2 | 72.4 |
| O=C(c1ccc(NCc2ccc(F)cc2)cc1)N1CCC[C@H]2CCCC[C@@H]21 | 50.1 |
| CCCCCC12CCC(c3nnc4n3CCCCC4)(CC1)CC2 | 5.01 |
